In ChEMBL document CHEMBL5126608, “Development, Optimization, and In Vivo Validation of New Imidazopyridine Chemotypes as Dual TLR7/TLR9 Antagonists through Activity-Directed Sequential Incorporation of Relevant Structural Subunits” (J Med Chem, 2022):

Experiments:
Toll-like receptor 9 = molecular target: T1, Toll-like receptor 9 (Homo sapiens, UniProt Q9NR96); experiment: Antagonist activity at human TLR9 expressed in HEK-blue hTLR9 cells assessed as inhibition of CpGB-induced NFkappaB activation preincubated with compound for 1 hrs followed by CpGB addition and measured next day by SEAP-based spectrophotometry assay; assay type: cell-based
T1 sequence (Q9NR96 whole entry): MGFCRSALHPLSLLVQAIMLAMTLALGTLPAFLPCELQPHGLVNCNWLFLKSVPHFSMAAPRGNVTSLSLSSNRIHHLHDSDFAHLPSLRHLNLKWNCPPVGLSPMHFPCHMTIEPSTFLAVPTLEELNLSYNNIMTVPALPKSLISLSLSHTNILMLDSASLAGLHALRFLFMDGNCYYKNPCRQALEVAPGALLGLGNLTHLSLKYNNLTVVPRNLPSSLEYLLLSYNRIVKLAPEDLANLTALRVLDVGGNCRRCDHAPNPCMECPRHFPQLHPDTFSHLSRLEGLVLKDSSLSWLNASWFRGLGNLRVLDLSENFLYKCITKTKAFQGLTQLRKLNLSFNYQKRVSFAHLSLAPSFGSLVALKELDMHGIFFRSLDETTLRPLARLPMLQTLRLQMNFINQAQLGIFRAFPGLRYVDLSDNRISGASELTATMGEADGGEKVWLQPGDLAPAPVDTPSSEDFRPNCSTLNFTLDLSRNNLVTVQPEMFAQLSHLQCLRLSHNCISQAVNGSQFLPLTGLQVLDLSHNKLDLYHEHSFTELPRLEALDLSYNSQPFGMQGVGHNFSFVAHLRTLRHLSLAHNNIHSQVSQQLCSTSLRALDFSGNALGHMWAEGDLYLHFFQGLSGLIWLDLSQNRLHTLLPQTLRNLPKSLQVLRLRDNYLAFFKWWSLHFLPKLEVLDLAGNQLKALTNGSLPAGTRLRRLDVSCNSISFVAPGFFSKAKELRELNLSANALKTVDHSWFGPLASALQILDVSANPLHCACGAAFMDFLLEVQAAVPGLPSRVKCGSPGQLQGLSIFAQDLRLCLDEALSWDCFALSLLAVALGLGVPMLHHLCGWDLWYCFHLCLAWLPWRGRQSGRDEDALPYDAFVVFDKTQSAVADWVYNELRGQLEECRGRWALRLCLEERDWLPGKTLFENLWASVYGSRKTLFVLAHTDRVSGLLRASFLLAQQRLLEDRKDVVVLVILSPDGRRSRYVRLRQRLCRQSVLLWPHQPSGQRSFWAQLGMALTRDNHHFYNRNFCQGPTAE

Toll-like receptor 8 = molecular target: T2, Toll-like receptor 8 (Homo sapiens, UniProt Q9NR97)
T2 sequence (Q9NR97 whole entry): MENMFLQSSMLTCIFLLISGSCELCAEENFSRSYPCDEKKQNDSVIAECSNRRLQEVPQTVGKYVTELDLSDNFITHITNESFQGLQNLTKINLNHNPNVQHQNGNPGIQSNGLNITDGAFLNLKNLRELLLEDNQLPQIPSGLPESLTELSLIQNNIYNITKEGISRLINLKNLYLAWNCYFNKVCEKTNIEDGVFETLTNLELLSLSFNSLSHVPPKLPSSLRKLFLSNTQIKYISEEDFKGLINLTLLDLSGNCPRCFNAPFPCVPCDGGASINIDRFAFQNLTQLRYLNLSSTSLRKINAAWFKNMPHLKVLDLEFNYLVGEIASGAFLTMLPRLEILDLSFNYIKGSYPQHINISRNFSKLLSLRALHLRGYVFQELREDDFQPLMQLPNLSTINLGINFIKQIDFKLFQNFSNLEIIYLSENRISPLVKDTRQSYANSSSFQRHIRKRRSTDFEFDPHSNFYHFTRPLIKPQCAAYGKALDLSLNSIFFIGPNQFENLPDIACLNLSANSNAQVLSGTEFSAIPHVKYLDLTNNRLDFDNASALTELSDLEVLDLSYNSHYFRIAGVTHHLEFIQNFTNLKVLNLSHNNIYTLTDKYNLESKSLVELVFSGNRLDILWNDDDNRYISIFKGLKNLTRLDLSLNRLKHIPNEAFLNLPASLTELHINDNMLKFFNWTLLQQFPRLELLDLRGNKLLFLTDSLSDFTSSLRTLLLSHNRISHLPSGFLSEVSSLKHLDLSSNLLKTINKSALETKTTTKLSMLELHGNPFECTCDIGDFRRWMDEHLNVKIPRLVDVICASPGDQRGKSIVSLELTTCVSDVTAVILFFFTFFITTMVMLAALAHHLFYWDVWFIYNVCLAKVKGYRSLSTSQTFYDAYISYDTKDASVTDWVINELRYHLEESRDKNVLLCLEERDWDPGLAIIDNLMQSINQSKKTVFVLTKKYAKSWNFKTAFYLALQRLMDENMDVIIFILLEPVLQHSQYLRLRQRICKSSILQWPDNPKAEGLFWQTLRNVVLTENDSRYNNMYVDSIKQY

IC50 (Toll-like receptor 9): 0.019 µM
IC50 (Toll-like receptor 8): 17.2 µM
SMILES: COc1ccc(-c2cn3ccc(NCCCN4CCCC4)cc3n2)c(OC)c1
